Consider 19 compounds from patent publication US8252803B2 (Merck Sharp & Dohme Corp., priority 2007, dated 2012).

One may read the IC50 as the concentration that inhibits the measured activity by half.

Where only a bound is given, the exact number is not on record here.

The target of the experiment is T1, γ-secretase, Aβ(1-42) production, SH-SY5Y neuroblastoma cells overexpressing SPA4CT (Homo sapiens, UniProt P49768).
T1 construct: Human SH-SY5Y neuroblastoma cells overexpressing the direct γ-secretase substrate SPA4CT; endogenous in cells; host or cells: human SH-SY5Y neuroblastoma cells stably overexpressing the substrate SPA4CT, induced with sodium butyrate
The experiment in a line: Cell-Based γ-Secretase Assay, Aβ(42) detection. The settings on record: overnight incubation, read-out: IC50 values for Aβ(1-42) inhibition. The procedure:
Cell-Based γ-Secretase Assay
Human SH-SY5Y neuroblastoma cells overexpressing the direct γ-secretase substrate SPA4CT were induced with sodium butyrate (10 mM) for 4 hours prior to plating. Cells were plated at 35,000 cells/well/100 μl in 96-well plates in phenol red-free MEM/10% FBS, 50 mM HEPES, 1% Glutamine and incubated for 2 hrs at 37° C., 5% CO2.
Compounds for testing were diluted into Me2SO to give a ten point dose-response curve. Typically 10 μl of these diluted compounds in Me2SO were further diluted into 182 μl dilution buffer (phenol red-free MEM/10% FBS, 50 mM HEPES, 1% Glutamine) and 10 μl of each dilution was added to the cells in 96-well plates (yielding a final Me2SO concentration of 0.5%). Appropriate vehicle and inhibitor controls were used to determine the window of the assay.
After incubation overnight at 37° C., 5% CO2, 25 μl and 50 μl media were transferred into a standard Meso avidin-coated 96-well plate for detection of Aβ(40) and Aβ(42) peptides, respectively. 25 μl Meso Assay buffer (PBS, 2% BSA, 0.2% Tween-20) was added to the Aβ(40) wells followed by the addition of 25 μl of the respective antibody premixes to the wells:
Aβ(42) premix: 1 μg/ml ruthenylated G2-11 antibody, 4 μg/ml biotinylated 4G8 antibody diluted in Origen buffer
(Biotinylated 4G8 antibody supplied by Signet Pathology Ltd; G2-10 and G2-11 antibodies supplied by Chemicon)
After overnight incubation of the assay plates on a shaker at 4° C., the Meso Scale Sector 6000 Imager was calibrated according to the manufacturer's instructions. After washing the plates 3 times with 150 μl of PBS per well, 150 μl Meso Scale Discovery read buffer was added to each well and the plates were read on the Sector 6000 Imager according to the manufacturer's instructions.
LD50 and IC50 values for inhibition of Aβ(40) and Aβ(42) were calculated by nonlinear regression fit analysis using the appropriate software (eg. Excel fit). The total signal and the background were defined by the corresponding Me2SO and inhibitor controls.
Consider `Cc1ccc(C(C)(C)C)cc1Nc1nc(N2CCC(n3ccnn3)CC2)ncc1F` [Example 1, N-(5-tert-butyl-2-methylphenyl)-5-fluoro-2-[4-(1H-1,2,3-triazol-1-yl)piperidin-1-yl]pyrimidin-4-amine], for which the IC50 lay in the range of 3 to 6 µM.
The result for `CCN(CC)c1ccc(Nc2ccnc(N3CCC4(CCCN4)CC3)n2)c(C)c1` [Example 4, N1-[2-(1,8-diazaspiro[4.5]dec-8-yl)pyrimidin-4-yl]-N4,N4-diethyl-2-methylbenzene-1,4-diamine] reads 3 to 6 µM; that for `CCN(CC)c1ccc(Nc2ccnc(N3CCC(n4ccnc4)CC3)n2)c(C)c1` [Example 7, N4,N4-diethyl-N1-{2-[4-(1H-imidazol-1-yl)piperidin-1-yl]pyrimidin-4-yl}-2-methylbenzene-1,4-diamine], 3 to 6 µM.
The result for `CCN(CC)c1ccc(Nc2ccnc(N3CCC(n4ccnn4)CC3)n2)c(C)c1` [Example 8, N4,N4-diethyl-2-methyl-N1-{2-[4-(1H-1,2,3-triazol-1-yl)piperidin-1-yl]pyrimidin-4-yl}benzene-1,4-diamine] reads 3 to 6 µM; that for `CCOc1cc(C)c(Nc2ccnc(N3CCC(n4ccnn4)CC3)n2)cc1C(C)C` [Example 10, N-(4-ethoxy-5-isopropyl-2-methylphenyl)-2-[4-(1H-1,2,3-triazol-1-yl)piperidin-1-yl]pyrimidin-4-amine], 0.5 to 1.5 µM.
The same measure for `CCOc1cc(C)c(Nc2ccnc(N3CCC(n4ccnc4)CC3)n2)cc1C(C)C` [Example 11, N-(4-ethoxy-5-isopropyl-2-methylphenyl)-2-[4-(1H-1,2,3-imidazol-1-yl)piperidin-1-yl]pyrimidin-4-amine]: under 0.5 µM.
`Cc1ccc(C(C)C)cc1Nc1ccnc(N2CCC(n3ccnn3)CC2)n1` [Example 12, N-(5-isopropyl-2-methylphenyl)-2-[4-(1H-1,2,3-triazol-1-yl)piperidin-1-yl]pyrimidin-4-amine]: the IC50 was 3 to 6 µM.
The result for `CCN(CC)c1ccc(Nc2ccnc(N3CCC(c4nnc(-c5ccccc5)o4)CC3)n2)c(C)c1` [Example 14, N4,N4-diethyl-2-methyl-N1-{2-[4-(5-phenyl-1,3,4-oxadiazol-2-yl)piperidin-1-yl]pyrimidin-4-yl}benzene-1,4-diamine] reads 1.5 to 3 µM; that for `Cc1ccc(C(C)(C)C)cc1Nc1ccnc(N2CCC(n3ccnn3)CC2)n1` [Example 15, N-(5-tert-butyl-2-methylphenyl)-2-[4-(1H-1,2,3-triazol-1-yl)piperidin-1-yl]pyrimidin-4-amine], 0.5 to 1.5 µM.
With `Cc1ccc(C(C)(C)C)cc1Nc1ccnc(N2CCC(n3ccnc3)CC2)n1` [Example 16, N-(5-tert-butyl-2-methylphenyl)-2-[4-(1H-imidazol-1-yl)piperidin-1-yl]pyrimidin-4-amine], the IC50 was in the range of 0.5 to 1.5 µM.
The result for `Cc1ccc(C(C)(C)C)cc1Nc1nc(N2CCC(n3ccnc3)CC2)ncc1F` [Example 17, N-(5-tert-butyl-2-methylphenyl)-5-fluoro-2-[4-(1H-imidazol-1-yl)piperidin-1-yl]pyrimidin-4-amine] reads 3 to 6 µM.
The result for `Cc1ccc(C(C)(C)C)cc1Nc1cc(S(C)(=O)=O)nc(N2CCC(n3ccnc3)CC2)n1` [Example 18, N-(5-tert-butyl-2-methylphenyl)-2-[4-(1H-imidazol-1-yl)piperidin-1-yl]-6-(methylsulfonyl)pyrimidin-4-amine] reads 3 to 6 µM; that for `CCOc1cc(C)c(Nc2nc(N3CCC(n4ccnn4)CC3)ncc2Cl)cc1C(C)C` [Example 19, 5-chloro-N-(4-ethoxy-5-isopropyl-2-methylphenyl)-2-[4-(1H-1,2,3-triazol-1-yl)piperidin-1-yl]pyrimidin-4-amine], 1.5 to 3 µM.
The same measure for `CCOc1cc(C)c(Nc2nc(N3CCC(n4ccnc4)CC3)ncc2Cl)cc1C(C)C` [Example 20, 5-chloro-N-(4-ethoxy-5-isopropyl-2-methylphenyl)-2-[4-(1H-imidazol-1-yl)piperidin-1-yl]pyrimidin-4-amine]: 1.5 to 3 µM; for `CCOc1cc(C)c(Nc2nc(N3CCC(n4ccnn4)CC3)ncc2F)cc1C(C)C` [Example 21, N-(4-ethoxy-5-isopropyl-2-methylphenyl)-5-fluoro-2-[4-(1H-1,2,3-triazol-1-yl)piperidin-1-yl]pyrimidin-4-amine]: 0.5 to 1.5 µM; for `CCOc1cc(C)c(Nc2nc(N3CCC(n4ccnc4)CC3)ncc2F)cc1C(C)C` [Example 22, N-(4-ethoxy-5-isopropyl-2-methylphenyl)-5-fluoro-2-[4-(1H-imidazol-1-yl)piperidin-1-yl]pyrimidin-4-amine]: 0.5 to 1.5 µM.
As for `CCOc1cc(C)c(Nc2nc(N3CCC(n4cc(C)nn4)CC3)ncc2Cl)cc1C(C)C` [Example 23, 5-chloro-N-(4-ethoxy-5-isopropyl-2-methylphenyl)-2-[4-(4-methyl-1H-1,2,3-triazol-1-yl)piperidin-1-yl]pyrimidin-4-amine], the IC50 lay in the range of 1.5 to 3 µM.
The same measure for `CCOc1cc(C)c(Nc2cc(C(=O)OC)nc(N3CCC(n4ccnc4)CC3)n2)cc1C(C)C` [Example 24]: under 0.5 µM; for `CCOc1cc(C)c(Nc2cc(CO)nc(N3CCC(n4ccnc4)CC3)n2)cc1C(C)C` [Example 25, {6-[(4-ethoxy-5-isopropyl-2-methylphenyl)amino]-2-[4-(1H-imidazol-1-yl)piperidin-1-yl]pyrimidin-4-yl}methanol]: under 0.5 µM.
